Test results published in US8889688B2, “Piperazines as antimalarial agents” (Actelion Pharmaceuticals Ltd., priority 2011, dated 2014).
Read-outs that look alike come from different tables or passages of the source.

Key:
[1] = tested on: erythrocytic stages of P. falciparum NF54; assay: Plasmodium falciparum in vitro assay, [3H] hypoxanthine incorporation; type: cell-based; conditions: P. falciparum NF54 in human red blood cells, 48 h + 24 h incubation
How it was run: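 Cultures in human red blood cells (2.5% hematocrit, 0.3% parasitemia) were exposed to serially diluted compounds for 48 h at 37° C. under 4% CO2, 3% O2, 93% N2. [3H] hypoxanthine (0.5 μCi) was added for a further 24 h, incorporation counted by scintillation, and IC50 derived from sigmoidal inhibition curves.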

[2] = tested on: P. berghei strain GFP-ANKA; assay: In vivo antimalarial efficacy study in infected NMRI mice; conditions: female NMRI mice infected with P. berghei GFP-ANKA, single oral dose of 100 mg/kg 24 h after infection, parasitemia 48 h after drug treatment (day 3); for inhibition in vivo at 100 mg/kg: Plasmodium berghei, read-out: Activity (inhibition of parasitemia) expressed as a percent relative to the control group
Procedure: In Vivo Antimalarial Efficacy Studies
In vivo antimalarial activity is assessed for groups of three female NMRI mice (20-22 g) intravenously infected on day 0 with P. berghei strain GFP-ANKA (0.2 mL heparinized saline suspension containing 2×10^7 parasitized erythrocytes). In control mice, parasitemia typically rises to approximately 40% by day 3 after infection. Compounds are formulated in Tween 80/ethanol (7%/3%) usually at concentrations of 10 mg/mL. Compounds are administered in a volume of 10 mL/kg orally as single doses (1×100 mg/kg, 24 h after infection). 48 h after drug treatment (day 3 post-infection), 1 μl tail blood is taken, resuspended in 1 mL PBS buffer and parasitemia determined with a FACScan (Becton Dickinson) by counting 100′000 red blood cells. Activity is calculated as the difference between the mean value of the control group and treated groups expressed as a percent relative to the control group.

[3] = Plasmodium falciparum, Erythrocyte, 72 h, screening medium with Albumax (5 g/L), read-out: IC50 on NF54 (with Albumax)
[4] = Plasmodium falciparum, Erythrocyte, 72 h, screening medium with human serum (50% final concentration), read-out: IC50 on NF54 (with 50% Serum)

Row | Molecule | IC50 [1, 3] [nM] | IC50 [1, 4] [nM] | inhibition in vivo at 100 mg/kg [2] [%] | IC50 ([1]; screening medium with Albumax (5 g/L), read-out: IC50 on NF54 (with Albumax)) [nM] | IC50 ([1]; screening medium with human serum (50% final concentration), read-out: IC50 on NF54 (with 50% Serum)) [nM] | Activity (inhibition of parasitemia) expressed as a percent relative to the control group [2] [%]
1 | CCCOc1ccc(C=CC(=O)N(Cc2ccc(N3CCN(C(C)=O)CC3)cc2)[C@@H](Cc2ccccc2)C(=O)N2CCN(Cc3ccc(S(C)(=O)=O)cc3)CC2)cc1 [Example 46, (S)-N-[4-(4-Acetyl-piperazin-1-yl)-benzyl]-N-{1-benzyl-2-[4-(4-(methylsulfonyl)-benzyl)-piperazin-1-yl]-2-oxo-ethyl}-3-(4-propoxyphenyl)-acrylamide] | 0.4 | 1.1 | 98.9 |  |  | 
2 | CCCOc1ccc(C=CC(=O)N(Cc2ccc(N3CCN(C(C)=O)CC3)cc2)[C@@H](Cc2ccccc2)C(=O)N2CCN(Cc3ccccc3)CC2)cc1 [Example 8, (S)-N-[4-(4-Acetyl-piperazin-1-yl)-benzyl]-N-[1-benzyl-2-(4-benzyl-piperazin-1-yl)-2-oxo-ethyl]-3-(4-propoxy-phenyl)-acrylamide] | 1.8 | 13.4 | 99.4 |  |  | 
3 | CC(=O)N1CCN(c2ccc(CN(C(=O)C=Cc3ccc(C(F)(F)F)cc3)[C@@H](Cc3ccccc3)C(=O)N3CCN(Cc4ccc(C#N)cc4)CC3)cc2)CC1 [Example 24, (S)-N-[4-(4-Acetyl-piperazin-1-yl)-benzyl]-N-{1-benzyl-2-[4-(4-cyano-benzyl)-piperazin-1-yl]-2-oxo-ethyl}-3-(4-trifluoromethyl-phenyl)-acrylamide] | 2.8 | 13.9 | 79.2 |  |  | 
4 | CCc1ccc(C=CC(=O)N(Cc2ccc(N3CCN(C(C)=O)CC3)cc2)[C@@H](Cc2ccccc2)C(=O)N2CCN(Cc3ccc(Cl)cc3)CC2)cc1 [Example 40, (S)-N-[4-(4-Acetyl-piperazin-1-yl)-benzyl]-N-{1-benzyl-2-[4-(4-chloro-benzyl)-piperazin-1-yl]-2-oxo-ethyl}-3-(4-ethyl-phenyl)-acrylamide] | 1.7 | 10.5 | 93.6 |  |  | 
5 | CC(=O)N1CCN(c2ccc(CN(C(=O)C=Cc3ccc(S(C)(=O)=O)cc3)[C@@H](Cc3ccccc3)C(=O)N3CCN(Cc4ccccc4)CC3)cc2)CC1 [Example 6, (S)-N-[4-(4-Acetyl-piperazin-1-yl)-benzyl]-N-[1-benzyl-2-(4-benzyl-piperazin-1-yl)-2-oxo-ethyl]-3-(4-methanesulfonyl-phenyl)-acrylamide] | 9.4 | 32 | 80.4 |  |  | 
6 | CC(=O)N1CCN(c2ccc(CN(C(=O)C=Cc3ccc(OC(F)F)cc3)[C@@H](Cc3ccccc3)C(=O)N3CCN(Cc4ccc(N(C)CCO)cc4)CC3)cc2)CC1 [Example 60, (S)-N-[4-(4-Acetyl-piperazin-1-yl)-benzyl]-N-[1-benzyl-2-(4-{4-[(2-hydroxy-ethyl)-methyl-amino]-benzyl}-piperazin-1-yl)-2-oxo-ethyl]-3-(4-difluoromethoxy-phenyl)-acrylamide] | 3 | 8.1 | 78.3 |  |  | 
7 | CCOc1ccc(C=CC(=O)N(Cc2ccc(N3CCN(C(C)=O)CC3)cc2)[C@@H](Cc2ccccc2)C(=O)N2CCN(Cc3ccc(C#N)cc3)CC2)cc1 [Example 25, (S)-N-[4-(4-Acetyl-piperazin-1-yl)-benzyl]-N-{1-benzyl-2-[4-(4-cyano-benzyl)-piperazin-1-yl]-2-oxo-ethyl}-3-(4-ethoxy-phenyl)-acrylamide] | 1.2 | 4.7 | 99.1 |  |  | 
8 | (S)-N-[4-(4-Acetyl-piperazin-1-yl)-benzyl]-N-[1-benzyl-2-(4-{4-[(2-hydroxy-ethyl)-methyl-amino]-benzyl}-piperazin-1-yl)-2-oxo-ethyl]-3-(4-isopropyl-phenyl)-acrylamide [Example 61] |  |  |  | 1.2 | 6.7 | 98.8
9 | CC(=O)N1CCN(c2ccc(CN(C(=O)C=Cc3ccc(OC(C)C)cc3)[C@@H](Cc3ccccc3)C(=O)N3CCN(Cc4ccc(C#N)cc4)CC3)cc2)CC1 [Example 29, (S)-N-[4-(4-Acetyl-piperazin-1-yl)-benzyl]-N-{1-benzyl-2-[4-(4-cyano-benzyl)-piperazin-1-yl]-2-oxo-ethyl}-3-(4-isopropoxy-phenyl)-acrylamide] | 1.1 | 3.7 | 99.2 |  |  | 
10 | CC(=O)N1CCN(c2ccc(CN(C(=O)C=Cc3ccc(C(F)(F)F)cc3)[C@@H](Cc3ccccc3)C(=O)N3CCN(Cc4ccc(S(C)(=O)=O)cc4)CC3)cc2)CC1 [Example 47, (S)-N-(4-(4-acetylpiperazin-1-yl)benzyl)-N-(1-(4-(4-(methylsulfonyl)benzyl)piperazin-1-yl)-1-oxo-3-phenylpropan-2-yl)-3-(4-(trifluoromethyl)phenyl)acrylamide] | 0.5 | 3.5 | 98.4 |  |  | 
11 | CC(=O)N1CCN(c2ccc(CN(C(=O)C=Cc3ccc(C(C)C)cc3)[C@@H](Cc3ccccc3)C(=O)N3CCN(Cc4ccc(N(C)C)cc4)CC3)cc2)CC1 [Example 23, (S)-N-[4-(4-Acetyl-piperazin-1-yl)-benzyl]-N-{1-benzyl-2-[4-(4-dimethylamino-benzyl)-piperazin-1-yl]-2-oxo-ethyl}-3-(4-isopropyl-phenyl)-acrylamide] | 1.3 | 9.5 | 99.1 |  |  | 
12 | CC(=O)N1CCN(c2ccc(CN(C(=O)C=Cc3ccc(C(C)(C)C)cc3)[C@@H](Cc3ccccc3)C(=O)N3CCN(Cc4ccc(Cl)cc4)CC3)cc2)CC1 [Example 43, (S)-N-[4-(4-Acetyl-piperazin-1-yl)-benzyl]-N-{1-benzyl-2-[4-(4-chloro-benzyl)-piperazin-1-yl]-2-oxo-ethyl}-3-(4-tert-butyl-phenyl)-acrylamide] | 1.1 | 13.5 | 98.7 |  |  | 
13 | CC(=O)N1CCN(c2ccc(CN(C(=O)C=Cc3ccc(OC(F)F)cc3)[C@@H](Cc3ccccc3)C(=O)N3CCN(Cc4ccc(C#N)cc4)CC3)cc2)CC1 [Example 31, (S)-N-[4-(4-Acetyl-piperazin-1-yl)-benzyl]-N-{1-benzyl-2-[4-(4-cyano-benzyl)-piperazin-1-yl]-2-oxo-ethyl}-3-(4-difluoromethoxy-phenyl)-acrylamide] | 1.7 | 3.8 | 88.9 |  |  | 
14 | CC(=O)Nc1ccc(C=CC(=O)N(Cc2ccc(N3CCN(C(C)=O)CC3)cc2)[C@@H](Cc2ccccc2)C(=O)N2CCN(Cc3ccccc3)CC2)cc1 [Example 7, (S)-3-(4-Acetylamino-phenyl)-N-[4-(4-acetyl-piperazin-1-yl)benzyl]-N-[1-benzyl-2-(4-benzyl-piperazin-1-yl)-2-oxo-ethyl]-acrylamide] | 3.1 | 40 | 44.7 |  |  | 
15 | CCCOc1ccc(C=CC(=O)N(Cc2ccc(N3CCN(C(C)=O)CC3)cc2)[C@@H](Cc2ccccc2)C(=O)N2CCN(Cc3ccc(S(=O)(=O)CC)cc3)CC2)cc1 [Example 48, (S)-N-[4-(4-Acetyl-piperazin-1-yl)-benzyl]-N-{1-benzyl-2-[4-(4-(ethylsulfonyl)-benzyl)-piperazin-1-yl]-2-oxo-ethyl}-3-(4-propoxyphenyl)-acrylamide] | 0.5 | 1.6 | 99 |  |  | 
16 | CC(=O)N1CCN(c2ccc(CN(C(=O)C=Cc3ccc(OC(C)C)cc3)[C@@H](Cc3ccccc3)C(=O)N3CCN(Cc4ccc(S(C)(=O)=O)cc4)CC3)cc2)CC1 [Example 44, (S)-N-[4-(4-Acetyl-piperazin-1-yl)-benzyl]-N-{1-benzyl-2-[4-(4-(methylsulfonyl)-benzyl)-piperazin-1-yl]-2-oxo-ethyl}-3-(4-isopropoxyphenyl)-acrylamide] | 0.4 | 2.8 | 99 |  |  | 
17 | CC(=O)N1CCN(c2ccc(CN(C(=O)C=Cc3ccc(C(F)(F)F)cc3)[C@@H](Cc3ccccc3)C(=O)N3CCN(Cc4ccc(N(C)CCO)cc4)CC3)cc2)CC1 [Example 50, (S)-N-[4-(4-Acetyl-piperazin-1-yl)-benzyl]-N-[1-benzyl-2-(4-{4-[(2-hydroxy-ethyl)-methyl-amino]-benzyl}-piperazin-1-yl)-2-oxo-ethyl]-3-(4-trifluoromethyl-phenyl)-acrylamide] | 1.6 | 9.3 | 98 |  |  | 
18 | CC(=O)N1CCN(c2ccc(CN(C(=O)C=Cc3ccc(OC(C)C)cc3)[C@@H](Cc3ccccc3)C(=O)N3CCN(Cc4ccc(N(C)C)cc4)CC3)cc2)CC1 [Example 19, (S)-N-[4-(4-Acetyl-piperazin-1-yl)-benzyl]-N-{1-benzyl-2-[4-(4-dimethylamino-benzyl)-piperazin-1-yl]-2-oxo-ethyl}-3-(4-isopropoxy-phenyl)-acrylamide] | 2.6 | 9.3 | 99.2 |  |  | 
